What all share (assay type): in vivo
For assay [1], the system named is rice blast Pyricularia oryzae. The following applies: 2000 ppm; soil and leaves; 7 days; controls less than 5%.
The test system of assay [2] is Wheat (Triticum aestivum). The assay is described as follows: Post-emergence foliar spray of monocotyledons, wheat. The following applies: foliar spray 2.8 kg/ha, 14 days, 0=no effect, 100=complete kill. The procedure:
(§1) Seeds of the monocotyledon species listed below were sown in anodised aluminium pans, 19 cm long×9.5 cm wide×5.0 cm deep, containing John Innes I potting compost. They were then watered and placed in a controlled environment room (22° C.; 65-85% relative humidity; 14 hours per day artificial illumination at 17,000 lux). 14 days after sowing, the seedlings were given a foliar spray of the compound of Example 44, formulated as an aqueous suspension together with 2000 ppm of the wetting agent Lissapol NX. The dosage rate was adjusted to be 2.8 kg active ingredient in 450 liters per hectare. After a further 14 days in the controlled environment room, the plants were visually assessed for any growth regulatory or herbicidal effect. All differences from an untreated control were scored on a scale from 0-100 where 0 signifies no effect and 100 signifies complete kill.
(§2) The compounds listed below were tested according to the procedure of Example 66 but including rice (Oryza sativa) as an additional test species.

The subject of assay [3] is Barley (Hordeum vulgare). As to the kind of experiment: Post-emergence foliar spray of monocotyledons, barley. The following applies: foliar spray 2.8 kg/ha, 14 days, 0=no effect, 100=complete kill. As to the method:
as §1, §2

The test system of assay [4] is Barnyardgrass (Echinochloa crus-galli). The assay is described as follows: Post-emergence foliar spray of monocotyledons, barnyardgrass. The following applies: foliar spray 2.8 kg/ha, 14 days, 0=no effect, 100=complete kill. As to the method:
as §1, §2

For assay [5], the system named is rice (Oryza sativa). The assay is described as follows: Post-emergence foliar spray of monocotyledons, rice. The following applies: foliar spray 2.8 kg/ha, 14 days, 0=no effect, 100=complete kill. The procedure: as §1, §2
The subject of assay [6] is Cotton. The assay is described as follows: Soil incorporation (I), cotton. The following applies: 21 days, 0=no effect, 100=complete suppression. The source says:
(§3) Each of the compounds listed below was formulated as: […]
(§4) (I) an attaclay/sand dust and incorporated in John Innes I potting compost at a rate equivalent to 6.5 and 3.25 parts per million weight/volume of active ingredient to soil and placed in anodised aluminium pans, 19 cm long×9.5 cm wide×5.0 cm high. This is approximately equivalent to a surface application of 2.8 and 1.4 kg active ingredient per hectare cultivated to a depth of 5 cm. Seeds of the species listed below were sown in the treated soil, one species per pan, watered and placed in a controlled environment room (22° C.; 65-85% relative humidity and 14 hours artificial illumination at 17,000 lux) for 21 days.
(§5) The plants were then visually assessed for any growth regulatory or herbicidal effects. All differences from an untreated control were scored on a scale from 0-100, where 0 signifies no effect and 100 signifies complete suppression.
(§6) The results are shown in the following table where I stands for soil incorporation and II for surface spray.

Assay [7] relates to Tomato. As to the kind of experiment: Soil incorporation (I), tomato. The following applies: 21 days, 0=no effect, 100=complete suppression.
Description: as §3, §4, §5, §6

Assay [8] relates to Wheat. As to the kind of experiment: Soil incorporation (I), wheat. The following applies: 21 days, 0=no effect, 100=complete suppression.
Description: as §3, §4, §5, §6

Assay [9] has as its system Barley. As to the kind of experiment: Soil incorporation (I), barley. The following applies: 21 days, 0=no effect, 100=complete suppression.
Description: as §3, §4, §5, §6

Assay [10] deals with Barnyard Grass. The assay is described as follows: Soil incorporation (I), barnyard grass. The following applies: 21 days, 0=no effect, 100=complete suppression.
Description: as §3, §4, §5, §6

For assay [11], the system named is Rice. As to the kind of experiment: Soil incorporation (I), rice. The following applies: 21 days, 0=no effect, 100=complete suppression.
Description: as §3, §4, §5, §6

In assay [12] the test system is Carrot. As to the kind of experiment: Soil incorporation (I), carrot. The following applies: 21 days, 0=no effect, 100=complete suppression.
Description: as §3, §4, §5, §6

Assay [13] concerns Cotton. As to the kind of experiment: Surface spray (II), cotton. The following applies: 21 days, 0=no effect, 100=complete suppression.
Description: as §3
(§7) (II) An aqueous suspension together with 1000 ppm of the wetting agent Lissapol NX. The surfaces of an additional set of pans with seeds already sown were then sprayed with 2.8 or 1.4 kg/ha in 450 liters/hectare, and the pans kept in the controlled environment room for 21 days.
as §5, §6

For assay [14], the system named is Tomato. The assay is described as follows: Surface spray (II), tomato. The following applies: 21 days, 0=no effect, 100=complete suppression.
Description: as §3, §7, §5, §6

The subject of assay [15] is Wheat. The assay is described as follows: Surface spray (II), wheat. The following applies: 21 days, 0=no effect, 100=complete suppression.
Description: as §3, §7, §5, §6

The subject of assay [16] is Barley. The assay is described as follows: Surface spray (II), barley. The following applies: 21 days, 0=no effect, 100=complete suppression.
Description: as §3, §7, §5, §6

Assay [17] deals with Barnyard Grass. As to the kind of experiment: Surface spray (II), barnyard grass. The following applies: 21 days, 0=no effect, 100=complete suppression.
Description: as §3, §7, §5, §6

The subject of assay [18] is Rice. The assay is described as follows: Surface spray (II), rice. The following applies: 21 days, 0=no effect, 100=complete suppression.
Description: as §3, §7, §5, §6

For assay [19], the system named is Carrot. As to the kind of experiment: Surface spray (II), carrot. The following applies: 21 days, 0=no effect, 100=complete suppression.
Description: as §3, §7, §5, §6

Regarding `CCS(=O)(=O)N(CC(=O)C(C)(C)C)c1c(C)cccc1C` [Example 212, N-2-oxo-3,3-dimethylbutyl-2',6'-dimethyl-ethanesulphonanilide], the “% Control, rice blast” value in assay [1] stood at 80%.
Take `CCS(=O)(=O)N(CC#N)c1ccc(Cl)c(Cl)c1` [Example 137]: the “growth regulatory or herbicidal effect score” value in assay [2] was determined as 0; in [3] it was 0; in assay [4], 80; in assay [5], 0; in [6] (I soil incorporation 3.25 ppm), 0; in assay [6] (I soil incorporation 6.5 ppm) it was 0. For the same molecule, the “growth regulatory or herbicidal effect score” value in assay [7] (I soil incorporation 3.25 ppm), in [7] (I soil incorporation 6.5 ppm), in assay [8] (I soil incorporation 3.25 ppm), in [8] (I soil incorporation 6.5 ppm), in assay [9] (I soil incorporation 3.25 ppm) and in assay [9] (I soil incorporation 6.5 ppm) was 0 each time. Besides, the “growth regulatory or herbicidal effect score” value in assay [10] (I soil incorporation 3.25 ppm) was 90; in [10] (I soil incorporation 6.5 ppm) it was 90; in [11] (I soil incorporation 3.25 ppm) it was 0; in assay [11] (I soil incorporation 6.5 ppm) it was 0; in [12] (I soil incorporation 3.25 ppm), 0; in [12] (I soil incorporation 6.5 ppm) it was 0. The “growth regulatory or herbicidal effect score” value in assay [13] (row 3.25 ppm (1.4 kg/ha)), in assay [13] (row 6.5 ppm (2.8 kg/ha)), in [14] (row 3.25 ppm (1.4 kg/ha)), in [14] (row 6.5 ppm (2.8 kg/ha)), in [15] (row 3.25 ppm (1.4 kg/ha)) and in [15] (row 6.5 ppm (2.8 kg/ha)) was 0 in each case. The “growth regulatory or herbicidal effect score” value in [16] (row 3.25 ppm (1.4 kg/ha)) came to 0; in [16] (row 6.5 ppm (2.8 kg/ha)), 0; in [17] (row 3.25 ppm (1.4 kg/ha)), 90; in assay [17] (row 6.5 ppm (2.8 kg/ha)), 100; in [18] (row 3.25 ppm (1.4 kg/ha)), 0; in assay [18] (row 6.5 ppm (2.8 kg/ha)), 0. In addition, the “growth regulatory or herbicidal effect score” value in [19] (row 3.25 ppm (1.4 kg/ha)) and in assay [19] (row 6.5 ppm (2.8 kg/ha)) was 0 in each case.

Values taken from patent US4309559A, “Sulphonamides useful as pesticides” (FBC Limited, priority 1977, dated 1982).
